Data taken from ChEMBL document CHEMBL1150977, “A quantitative analysis of kinase inhibitor selectivity” (Nat Biotechnol, 2008).
pKd: −log10 of the molar value.

Columns and labels:
LIM domain kinase 1 = LIM domain kinase 1 (Homo sapiens, UniProt P53667)
[1] = molecular target: Platelet-derived growth factor receptor alpha (Homo sapiens, UniProt P16234)
[2] = molecular target: Serine/threonine-protein kinase SIK1 (Homo sapiens, UniProt P57059)
[3] = molecular target: RAC-gamma serine/threonine-protein kinase (Homo sapiens, UniProt Q9Y243)
[4] = molecular target: cAMP-dependent protein kinase catalytic subunit alpha (Homo sapiens, UniProt P17612)
[5] = molecular target: Mitogen-activated protein kinase 4 (Homo sapiens, UniProt P31152)
[6] = molecular target: Dual specificity protein kinase CLK2 (Homo sapiens, UniProt P49760)
[7] = molecular target: Vascular endothelial growth factor receptor 1 (Homo sapiens, UniProt P17948)
[8] = molecular target: T1, 3-phosphoinositide-dependent protein kinase 1 (Homo sapiens, UniProt O15530)
T1 sequence (O15530 whole entry): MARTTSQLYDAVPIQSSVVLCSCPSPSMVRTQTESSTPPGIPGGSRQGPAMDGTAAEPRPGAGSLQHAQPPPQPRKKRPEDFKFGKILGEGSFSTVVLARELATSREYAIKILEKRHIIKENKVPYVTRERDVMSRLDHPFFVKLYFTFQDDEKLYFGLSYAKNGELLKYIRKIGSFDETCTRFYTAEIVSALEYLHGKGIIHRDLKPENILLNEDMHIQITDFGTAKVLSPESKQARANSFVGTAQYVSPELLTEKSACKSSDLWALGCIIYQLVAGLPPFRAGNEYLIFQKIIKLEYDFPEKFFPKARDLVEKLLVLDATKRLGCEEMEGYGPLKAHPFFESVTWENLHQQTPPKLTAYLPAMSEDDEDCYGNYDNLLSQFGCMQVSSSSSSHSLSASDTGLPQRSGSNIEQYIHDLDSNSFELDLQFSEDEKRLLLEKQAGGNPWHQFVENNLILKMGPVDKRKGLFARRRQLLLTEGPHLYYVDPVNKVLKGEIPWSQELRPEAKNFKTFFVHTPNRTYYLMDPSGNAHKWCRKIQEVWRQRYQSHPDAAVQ

[9] = molecular target: Interferon-induced, double-stranded RNA-activated protein kinase (Homo sapiens, UniProt P19525)
[10] = molecular target: BDNF/NT-3 growth factors receptor (Homo sapiens, UniProt Q16620)
Myotonin-protein kinase = molecular target: T2, Myotonin-protein kinase (Homo sapiens, UniProt Q09013)
T2 sequence (Q09013 whole entry): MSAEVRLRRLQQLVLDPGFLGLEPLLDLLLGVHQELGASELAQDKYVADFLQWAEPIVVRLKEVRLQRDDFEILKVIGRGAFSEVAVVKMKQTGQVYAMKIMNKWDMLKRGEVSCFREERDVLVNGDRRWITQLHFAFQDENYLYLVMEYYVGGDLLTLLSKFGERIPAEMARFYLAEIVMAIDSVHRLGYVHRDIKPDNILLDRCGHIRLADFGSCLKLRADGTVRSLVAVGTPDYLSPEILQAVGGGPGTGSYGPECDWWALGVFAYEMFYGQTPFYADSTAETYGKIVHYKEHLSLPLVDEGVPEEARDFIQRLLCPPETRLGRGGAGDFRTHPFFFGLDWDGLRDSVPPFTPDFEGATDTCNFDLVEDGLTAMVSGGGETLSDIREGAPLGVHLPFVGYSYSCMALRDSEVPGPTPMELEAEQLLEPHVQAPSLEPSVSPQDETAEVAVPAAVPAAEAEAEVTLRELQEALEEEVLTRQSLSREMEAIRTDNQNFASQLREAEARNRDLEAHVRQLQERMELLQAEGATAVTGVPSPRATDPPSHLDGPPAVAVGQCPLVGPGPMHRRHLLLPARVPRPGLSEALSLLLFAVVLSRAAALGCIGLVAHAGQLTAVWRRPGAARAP

[11] = molecular target: T3, Mitogen-activated protein kinase kinase kinase kinase 3 (Homo sapiens, UniProt Q8IVH8)
T3 sequence (Q8IVH8 whole entry): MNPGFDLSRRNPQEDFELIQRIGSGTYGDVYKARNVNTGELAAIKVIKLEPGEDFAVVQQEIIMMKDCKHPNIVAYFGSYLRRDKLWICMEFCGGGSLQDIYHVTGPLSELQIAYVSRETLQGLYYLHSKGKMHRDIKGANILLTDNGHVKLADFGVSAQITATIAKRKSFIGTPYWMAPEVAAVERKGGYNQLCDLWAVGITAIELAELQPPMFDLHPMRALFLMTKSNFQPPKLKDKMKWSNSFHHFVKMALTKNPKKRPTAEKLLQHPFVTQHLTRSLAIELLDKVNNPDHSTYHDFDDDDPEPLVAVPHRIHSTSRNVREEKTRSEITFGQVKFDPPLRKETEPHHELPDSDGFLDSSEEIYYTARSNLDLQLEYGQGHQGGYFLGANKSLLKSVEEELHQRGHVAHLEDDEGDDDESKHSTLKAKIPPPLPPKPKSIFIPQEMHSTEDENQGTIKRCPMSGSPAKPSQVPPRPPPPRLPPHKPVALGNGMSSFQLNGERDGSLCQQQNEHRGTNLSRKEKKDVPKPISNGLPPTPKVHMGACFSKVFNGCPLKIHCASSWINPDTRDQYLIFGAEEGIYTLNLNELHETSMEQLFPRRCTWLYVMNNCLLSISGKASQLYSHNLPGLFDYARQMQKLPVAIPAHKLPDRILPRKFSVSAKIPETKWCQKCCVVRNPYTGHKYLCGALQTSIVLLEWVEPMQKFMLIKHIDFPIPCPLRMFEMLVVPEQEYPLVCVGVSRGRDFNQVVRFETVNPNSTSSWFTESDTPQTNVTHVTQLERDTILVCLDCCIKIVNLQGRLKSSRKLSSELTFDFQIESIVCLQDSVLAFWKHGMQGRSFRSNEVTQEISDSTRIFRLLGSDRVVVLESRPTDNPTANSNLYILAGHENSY

[12] = molecular target: Activin receptor type-1-like (Homo sapiens, UniProt P37023)
[13] = molecular target: Serine/threonine-protein kinase 26 (Homo sapiens, UniProt Q9P289)
Serine/threonine-protein kinase 26, sequence (Q9P289 whole entry): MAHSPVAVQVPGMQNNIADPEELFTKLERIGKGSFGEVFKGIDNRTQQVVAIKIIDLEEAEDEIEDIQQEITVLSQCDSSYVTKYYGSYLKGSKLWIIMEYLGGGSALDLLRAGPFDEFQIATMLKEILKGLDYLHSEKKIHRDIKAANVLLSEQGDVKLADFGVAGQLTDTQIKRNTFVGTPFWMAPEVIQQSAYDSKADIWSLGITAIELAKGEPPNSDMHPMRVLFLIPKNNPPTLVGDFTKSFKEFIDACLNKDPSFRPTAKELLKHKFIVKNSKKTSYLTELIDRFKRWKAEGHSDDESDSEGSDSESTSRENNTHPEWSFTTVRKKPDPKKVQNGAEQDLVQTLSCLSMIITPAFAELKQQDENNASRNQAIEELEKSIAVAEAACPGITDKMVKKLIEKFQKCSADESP

BDNF/NT-3 growth factors receptor, sequence (Q16620 whole entry): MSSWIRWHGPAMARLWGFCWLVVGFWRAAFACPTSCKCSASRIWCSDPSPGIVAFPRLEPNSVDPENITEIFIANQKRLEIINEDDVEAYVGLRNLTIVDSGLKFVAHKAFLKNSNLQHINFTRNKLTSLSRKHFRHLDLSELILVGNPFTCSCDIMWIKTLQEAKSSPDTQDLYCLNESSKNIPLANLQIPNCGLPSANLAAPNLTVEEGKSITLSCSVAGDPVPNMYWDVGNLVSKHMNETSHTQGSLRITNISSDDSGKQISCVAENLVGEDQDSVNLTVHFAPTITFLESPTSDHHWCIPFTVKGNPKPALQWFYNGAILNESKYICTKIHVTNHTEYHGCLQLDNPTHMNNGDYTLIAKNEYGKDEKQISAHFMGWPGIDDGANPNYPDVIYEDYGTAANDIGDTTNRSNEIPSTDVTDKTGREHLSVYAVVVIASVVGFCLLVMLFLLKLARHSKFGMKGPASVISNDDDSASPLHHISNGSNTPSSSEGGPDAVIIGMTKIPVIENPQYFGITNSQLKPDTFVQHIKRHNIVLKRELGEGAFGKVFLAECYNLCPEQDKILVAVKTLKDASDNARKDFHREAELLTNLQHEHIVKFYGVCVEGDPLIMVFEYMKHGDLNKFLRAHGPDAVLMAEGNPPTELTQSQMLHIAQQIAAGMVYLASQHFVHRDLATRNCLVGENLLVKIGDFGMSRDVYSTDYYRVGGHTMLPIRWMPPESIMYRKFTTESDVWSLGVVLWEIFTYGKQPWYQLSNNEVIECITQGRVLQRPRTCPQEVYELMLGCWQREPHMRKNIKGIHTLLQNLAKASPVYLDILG
Dual specificity protein kinase CLK2, sequence (P49760 whole entry): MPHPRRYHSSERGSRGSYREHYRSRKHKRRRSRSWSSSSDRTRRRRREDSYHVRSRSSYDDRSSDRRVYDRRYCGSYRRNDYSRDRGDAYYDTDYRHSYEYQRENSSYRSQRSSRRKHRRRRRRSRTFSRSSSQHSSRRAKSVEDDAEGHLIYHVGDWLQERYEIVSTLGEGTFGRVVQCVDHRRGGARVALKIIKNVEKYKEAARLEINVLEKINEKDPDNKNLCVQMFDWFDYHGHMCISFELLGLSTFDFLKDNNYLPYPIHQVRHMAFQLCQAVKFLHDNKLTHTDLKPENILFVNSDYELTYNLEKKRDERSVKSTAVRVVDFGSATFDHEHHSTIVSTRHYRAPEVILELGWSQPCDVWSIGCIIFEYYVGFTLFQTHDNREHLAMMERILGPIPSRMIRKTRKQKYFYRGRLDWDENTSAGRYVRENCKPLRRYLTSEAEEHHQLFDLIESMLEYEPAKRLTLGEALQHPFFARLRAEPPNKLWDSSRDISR
Serine/threonine-protein kinase SIK1, sequence (P57059 whole entry): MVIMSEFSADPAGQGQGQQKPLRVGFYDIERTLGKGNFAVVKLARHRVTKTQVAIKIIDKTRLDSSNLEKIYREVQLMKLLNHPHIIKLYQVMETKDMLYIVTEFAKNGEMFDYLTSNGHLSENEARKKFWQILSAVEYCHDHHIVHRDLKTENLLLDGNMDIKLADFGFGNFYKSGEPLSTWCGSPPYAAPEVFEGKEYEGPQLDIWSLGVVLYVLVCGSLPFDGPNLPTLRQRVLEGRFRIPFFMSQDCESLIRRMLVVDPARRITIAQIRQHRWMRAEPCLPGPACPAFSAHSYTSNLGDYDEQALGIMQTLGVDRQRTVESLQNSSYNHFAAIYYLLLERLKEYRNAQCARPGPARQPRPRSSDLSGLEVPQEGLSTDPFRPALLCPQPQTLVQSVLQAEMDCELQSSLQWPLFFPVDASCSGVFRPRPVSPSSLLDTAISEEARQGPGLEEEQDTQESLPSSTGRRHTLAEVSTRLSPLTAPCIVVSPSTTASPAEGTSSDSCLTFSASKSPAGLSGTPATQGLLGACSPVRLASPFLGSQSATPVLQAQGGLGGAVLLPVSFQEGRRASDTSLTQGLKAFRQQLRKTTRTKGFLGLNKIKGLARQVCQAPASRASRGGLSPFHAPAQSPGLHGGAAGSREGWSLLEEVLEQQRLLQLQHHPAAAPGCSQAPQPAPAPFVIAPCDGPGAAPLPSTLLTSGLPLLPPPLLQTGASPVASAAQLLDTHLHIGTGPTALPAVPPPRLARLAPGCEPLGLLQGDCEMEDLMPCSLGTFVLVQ
LIM domain kinase 1, sequence (P53667 whole entry, the tested form may be a part): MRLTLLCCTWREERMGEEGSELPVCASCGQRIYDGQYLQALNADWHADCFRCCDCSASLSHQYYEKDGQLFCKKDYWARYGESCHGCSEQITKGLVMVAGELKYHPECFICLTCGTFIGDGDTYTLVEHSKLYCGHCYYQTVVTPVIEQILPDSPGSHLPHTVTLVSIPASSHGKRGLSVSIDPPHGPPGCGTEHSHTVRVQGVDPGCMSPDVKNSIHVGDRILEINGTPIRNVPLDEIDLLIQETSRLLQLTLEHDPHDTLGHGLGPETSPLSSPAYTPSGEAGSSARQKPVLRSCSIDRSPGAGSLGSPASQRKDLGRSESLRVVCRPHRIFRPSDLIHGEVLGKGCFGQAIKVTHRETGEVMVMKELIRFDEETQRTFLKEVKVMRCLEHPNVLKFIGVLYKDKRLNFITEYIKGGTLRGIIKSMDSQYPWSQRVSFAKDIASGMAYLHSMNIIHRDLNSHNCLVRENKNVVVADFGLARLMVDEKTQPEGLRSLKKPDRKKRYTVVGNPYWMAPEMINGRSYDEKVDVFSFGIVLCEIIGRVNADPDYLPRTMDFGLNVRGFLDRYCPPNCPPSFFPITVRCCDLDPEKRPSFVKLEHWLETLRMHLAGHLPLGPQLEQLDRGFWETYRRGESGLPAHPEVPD
Platelet-derived growth factor receptor alpha, sequence (P16234 whole entry): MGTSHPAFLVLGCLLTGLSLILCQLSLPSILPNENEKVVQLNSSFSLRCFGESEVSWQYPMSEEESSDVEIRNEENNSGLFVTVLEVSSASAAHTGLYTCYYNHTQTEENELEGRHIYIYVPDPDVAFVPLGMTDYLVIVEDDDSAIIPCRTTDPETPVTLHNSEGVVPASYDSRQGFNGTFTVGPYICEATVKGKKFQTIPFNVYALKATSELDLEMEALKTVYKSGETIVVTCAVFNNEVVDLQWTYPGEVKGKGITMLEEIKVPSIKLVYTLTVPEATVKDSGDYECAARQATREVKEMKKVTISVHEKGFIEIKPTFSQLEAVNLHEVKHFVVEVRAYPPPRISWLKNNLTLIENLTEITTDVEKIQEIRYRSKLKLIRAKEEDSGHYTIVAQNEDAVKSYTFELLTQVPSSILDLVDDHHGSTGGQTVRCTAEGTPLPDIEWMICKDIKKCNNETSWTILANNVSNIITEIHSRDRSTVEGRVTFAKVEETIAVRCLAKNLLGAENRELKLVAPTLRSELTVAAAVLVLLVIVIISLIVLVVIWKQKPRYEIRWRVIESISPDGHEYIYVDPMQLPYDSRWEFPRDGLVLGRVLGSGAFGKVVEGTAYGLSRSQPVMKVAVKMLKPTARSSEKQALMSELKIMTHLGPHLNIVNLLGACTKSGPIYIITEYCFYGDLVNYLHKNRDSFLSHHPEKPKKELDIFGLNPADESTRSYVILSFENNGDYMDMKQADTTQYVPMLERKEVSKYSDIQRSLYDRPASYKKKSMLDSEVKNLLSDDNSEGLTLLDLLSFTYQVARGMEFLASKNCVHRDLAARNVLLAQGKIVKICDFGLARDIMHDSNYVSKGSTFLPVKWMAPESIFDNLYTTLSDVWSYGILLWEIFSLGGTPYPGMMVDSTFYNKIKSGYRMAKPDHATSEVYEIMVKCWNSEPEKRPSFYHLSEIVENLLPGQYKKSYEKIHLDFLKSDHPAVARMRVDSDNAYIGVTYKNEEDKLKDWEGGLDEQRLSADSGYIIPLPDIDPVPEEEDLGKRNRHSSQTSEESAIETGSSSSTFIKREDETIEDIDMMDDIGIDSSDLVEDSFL
Interferon-induced, double-stranded RNA-activated protein kinase, sequence (P19525 whole entry): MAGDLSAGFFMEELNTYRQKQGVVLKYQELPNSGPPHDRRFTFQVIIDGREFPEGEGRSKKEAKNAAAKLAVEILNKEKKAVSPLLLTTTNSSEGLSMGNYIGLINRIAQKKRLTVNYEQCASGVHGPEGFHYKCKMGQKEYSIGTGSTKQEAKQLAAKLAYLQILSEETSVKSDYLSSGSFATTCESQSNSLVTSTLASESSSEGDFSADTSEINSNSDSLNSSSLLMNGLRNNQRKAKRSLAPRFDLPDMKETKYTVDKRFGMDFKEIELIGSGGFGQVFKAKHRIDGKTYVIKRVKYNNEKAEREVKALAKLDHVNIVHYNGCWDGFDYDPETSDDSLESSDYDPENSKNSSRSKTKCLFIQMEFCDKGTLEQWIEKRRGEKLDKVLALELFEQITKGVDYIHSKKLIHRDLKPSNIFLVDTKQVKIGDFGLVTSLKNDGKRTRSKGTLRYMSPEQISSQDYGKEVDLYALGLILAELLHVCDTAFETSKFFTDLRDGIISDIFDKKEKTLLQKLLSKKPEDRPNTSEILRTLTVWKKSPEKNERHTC

Row | SMILES | pKd (LIM domain kinase 1) | pKd [1] | pKd [2] | pKd [3] | pKd [4] | pKd [5] | pKd [6] | pKd [7] | pKd [8] | pKd [9] | pKd [10] | pKd (Myotonin-protein kinase) | pKd [11] | pKd [12] | pKd [13]
1 | CCN1CCN(Cc2ccc(NC(=O)Nc3ccc(Oc4cc(NC)ncn4)cc3)cc2C(F)(F)F)CC1 [AST-487] | < 5.00 |  |  |  |  |  |  |  |  |  |  |  |  |  | 
2 | COCC(=O)NC/C=C/c1ccc2ncnc(Nc3ccc(Oc4ccc(C)nc4)c(C)c3)c2c1 [CP-724714] | < 5.00 | < 5.00 | < 5.00 | < 5.00 | < 5.00 | < 5.00 | < 5.00 | < 5.00 | < 5.00 | < 5.00 | < 5.00 | < 5.00 | < 5.00 | < 5.00 | < 5.00
3 | Nc1nc(Nc2ccc(S(N)(=O)=O)cc2)nn1C(=O)c1c(F)cccc1F [JNJ-7706621] |  |  |  | < 5.00 |  | 5.80 |  |  | 5.51 |  | < 5.00 |  |  |  | 
4 | CCOc1cc2ncc(C#N)c(Nc3ccc(F)c(Cl)c3)c2cc1NC(=O)/C=C/CN(C)C [PELITINIB] | < 5.00 | < 5.00 | < 5.00 | < 5.00 | < 5.00 | < 5.00 | 5.74 | < 5.00 | < 5.00 | 5.72 | < 5.00 | 7.23 |  | < 5.00 | < 5.00
5 | Oc1ccc(-c2nc(-c3ccncc3)c(-c3ccc(F)cc3)[nH]2)cc1 [SB-202190] | < 5.00 | < 5.00 | < 5.00 | < 5.00 |  | < 5.00 | < 5.00 | < 5.00 | < 5.00 | < 5.00 | < 5.00 | < 5.00 | < 5.00 | < 5.00 | < 5.00
6 | NC(=O)c1ccc(-c2nc(-c3ccc4c(c3)OCO4)c(-c3ccccn3)[nH]2)cc1 [SB-431542] | < 5.00 | < 5.00 | < 5.00 | < 5.00 | < 5.00 | < 5.00 | < 5.00 | < 5.00 | < 5.00 | < 5.00 | < 5.00 | < 5.00 | < 5.00 | < 5.00 | < 5.00
